# Data taken from PMC10381486, “Hydantoanabaenopeptins from Lake Kinneret Microcystis Bloom, Isolation, and Structure Elucidation of the Possible Intermediates in the Anabaenopeptins Biosynthesis” (Marine Drugs, 2023).
# Columns and labels:
# [1] = biological target: chymotrypsin (Bos taurus, UniProt P00766); test: Chymotrypsin inhibition assay (SGGPNA substrate, 96-well plate); format: biochemical; details: Tris buffer pH 7.5, 5 min pre-incubation at 37 °C, kinetic absorbance at 405 nm over 30 min
# Method: […] Assays were performed in a 96-well plate format.
# The assay was performed in a Tris buffer (0.6 gr TRIS HCl/100 mL H2O, pH 7.5). The enzyme and the substrate Suc-Gly-Gly-phenylalanine-p-nitroanilide (SGGPNA) were dissolved in the buffer at a concentration of 1 mg/mL. To each well were added 100 μL of buffer, 10 μL of enzyme, and 10 μL of sample. Then, the plate was placed in the spectrophotometer for a 5 min incubation at 37 °C. Thereafter, to each well, 100 μL of substrate solution was added, and the plate was placed in the spectrophotometer for the kinetic measurement of the absorbance intensity over 30 min at a wavelength of 405 nm.
# [2] = biological target: T1, trypsin (Bos taurus, UniProt P00760); test: Trypsin inhibition assay (BAPNA substrate, 96-well plate); format: biochemical; details: Tris buffer pH 7.5, 5 min pre-incubation at 37 °C, kinetic absorbance at 405 nm over 30 min
# T1 construct: gene PRSS1
# T1 sequence (P00760 24-246): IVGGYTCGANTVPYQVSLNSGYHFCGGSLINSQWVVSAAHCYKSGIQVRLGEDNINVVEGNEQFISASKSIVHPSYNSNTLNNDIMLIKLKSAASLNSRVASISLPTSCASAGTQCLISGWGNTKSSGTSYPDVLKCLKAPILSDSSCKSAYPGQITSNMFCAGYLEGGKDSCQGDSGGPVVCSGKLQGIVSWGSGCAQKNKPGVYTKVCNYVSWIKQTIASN
# Method: The samples for biological assays were dissolved in DMSO at a concentration of 1 mg/mL and were tested for inhibition of the proteases at a single concentration: 1 […]. Assays were performed in a 96-well plate format.
# The assay was performed in a Tris buffer (0.6 g Tris HCl in 100 mL H2O, pH 7.5). Benzoyl-L-arginine-p-nitroanilide hydrochloride (BAPNA), the trypsin substrate, was dissolved at 1 mg/mL in 1:9 DMSO/buffer. The enzyme was dissolved in buffer at 1 mg/mL. To each well were added 100 μL of buffer, 10 μL of enzyme, and 10 μL of sample. The plate was placed in the spectrophotometer at 37 °C. After 5 min, 100 μL of substrate solution was added to each well, and the plate was placed in the spectrophotometer for the kinetic measurement of the absorbance intensity over 30 min at a wavelength of 405 nm.
substance,measurement,setting,value
"Dht-CO-cyclo-[Lys-Val-Hty-NMeAla-Phe] (lariat or depsi) [Compound 5, ^1[Dht]-anabaenopeptin A, new anabaenopeptin with dihomotyrosine at position 1]",inhibition of the serine protease chymotrypsin,[1]; single concentration 53.3 μM,nonactive
Hydanto-oscillamide Y [Compound 4],inhibition of the serine protease chymotrypsin,[1]; single concentration 54.2 μM,nonactive
Hydantoanabaenopeptin B [Compound 2],inhibition of the serine protease trypsin,[2]; single concentration 55.6 μM,nonactive
"Phe, NMeAla, Hty, Ile, Lys, and Arg (lariat or depsi) [Compound 3, Hydantoanabaenopeptin F, hydantoin derivative of anabaenopeptin F isolated from Lake Kinneret Microcystis bloom]",inhibition of the serine protease trypsin,[2]; single concentration 54.6 μM,nonactive
"cyclo-(Phe-NMeAla-Hty-Val-Lys-ε-NH)- (lariat or depsi) [Compound 1, Hydantoanabaenopeptin A, hydantoin derivative of anabaenopeptin A isolated from Lake Kinneret Microcystis bloom]",inhibition of the serine protease chymotrypsin,[1]; single concentration 55.1 μM,nonactive
"hydanto-Dht-[Lys-Val-Hty-NMeAla-Phe] (lariat or depsi) [Compound 6, ^1[Dht]-hydantoanabaenopeptin A, hydantoin derivative of 1[Dht]-anabaenopeptin A]",inhibition of the serine protease chymotrypsin,[1]; single concentration 53.3 μM,nonactive
